Measured values published in US20020010207A1, “Tropane analogs and methods for inhibition of monoamine transport” (priority 2000, published 2002).
Where “and” joins values, the source holds several entries; their conditions need not be identical. Equal entries are not always repeated. Where two headings read alike, the source gives them in different places.

Legend:
[1] = tested on: dopamine transporter (DAT); settings: potency ratio versus (1S)-(+)-cocaine; cited from earlier work
[2] = target: T1, serotonin transporter (SERT) (Macaca fascicularis, UniProt A7KAX8); assay: Serotonin transporter assay: inhibition of 3H-citalopram binding, caudate-putamen membranes; set-up: species or system cynomolgus monkey (Macaca fascicularis)
T1 construct: The serotonin transporter is assayed in caudate-putamen membranes; from tissue; host or cells: cynomolgus monkey caudate-putamen membranes
T1 sequence (A7KAX8 1-630): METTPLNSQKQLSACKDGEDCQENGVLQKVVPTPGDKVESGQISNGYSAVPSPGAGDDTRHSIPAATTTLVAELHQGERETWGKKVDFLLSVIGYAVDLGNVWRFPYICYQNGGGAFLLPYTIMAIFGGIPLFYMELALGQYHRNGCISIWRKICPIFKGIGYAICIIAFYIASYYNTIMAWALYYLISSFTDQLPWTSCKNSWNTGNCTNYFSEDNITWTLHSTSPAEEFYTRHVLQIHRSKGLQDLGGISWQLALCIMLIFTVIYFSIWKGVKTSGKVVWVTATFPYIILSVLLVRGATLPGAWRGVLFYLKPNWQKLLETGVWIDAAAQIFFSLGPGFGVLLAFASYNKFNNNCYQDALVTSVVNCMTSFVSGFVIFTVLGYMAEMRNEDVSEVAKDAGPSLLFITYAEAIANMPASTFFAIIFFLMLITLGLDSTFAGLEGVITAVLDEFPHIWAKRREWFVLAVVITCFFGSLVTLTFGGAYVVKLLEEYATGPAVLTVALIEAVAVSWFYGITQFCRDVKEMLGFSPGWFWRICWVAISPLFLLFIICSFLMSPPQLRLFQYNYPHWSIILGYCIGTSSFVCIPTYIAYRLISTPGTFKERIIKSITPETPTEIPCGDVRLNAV
Procedure: It is also important to measure the selectivity of the candidate of the dopamine compared with the serotonin transporter. The serotonin transporter is also detectable in the striatum, the brain region with the highest density of dopamine neurons and in brain regions surrounding the striatum. […] Therefore, a measure of probe affinity of the serotonin transport is conducted by assays paralleling the dopamine transporter assays.
Brain tissue from adult male and female cynomolgus monkeys (Macaca fascicularis) is stored at −85° C. in the primate -brain bank at the New England Regional Primate Research Center. […] Membranes are prepared as described previously. Briefly, the caudate-putamen is homogenized in 10 volumes (w/v) of ice-cold Tris.HCl buffer (50 mM, pH 7.4 at 4° C.) and centrifuged at […] for 20 min in the cold. The resulting pellet is suspended in 40 volumes of buffer, and the entire procedure is repeated twice.
The serotonin transporter is assayed in caudate-putamen membranes using conditions similar to those for the dopamine transporter. […] The 2 h incubation (0-4° C.) is initiated by addition of membranes and terminated by rapid filtration over Whatman GF/B glass fiber filters pre-soaked in 0.1% polyethyleneimine. The filters are washed twice with 5 ml Tris.HCl buffer (50 mM) and the remaining steps are carried out as described above. […] Specific binding is the difference between the two values.
Data are analyzed by EBDA and LIGAND computer software (Elsevier-Biosoft, UK) Final estimates of IC50 and nH values are computed by the EBDA program. Baseline values for the individual drugs are established by computer analysis using the baseline drugs as guide. The LIGAND program provides final parameter estimates of the novel compounds by iterative non-linear curve-fitting and evaluation of one- or two-component binding models.

[3] = target: T2, dopamine transporter (DAT) (Macaca fascicularis, UniProt Q9GJT6); assay: Dopamine transporter assay: inhibition of 3H-WIN35,428 binding, caudate-putamen membranes; set-up: species or system cynomolgus monkey (Macaca fascicularis); settings: for Selectivity DAT V. SERT: ratio of SERT IC50 to DAT IC50
T2 construct: The caudate-putamen will be dissected from coronal slices; from tissue; host or cells: cynomolgus monkey caudate-putamen membranes
T2 sequence (Q9GJT6 whole entry): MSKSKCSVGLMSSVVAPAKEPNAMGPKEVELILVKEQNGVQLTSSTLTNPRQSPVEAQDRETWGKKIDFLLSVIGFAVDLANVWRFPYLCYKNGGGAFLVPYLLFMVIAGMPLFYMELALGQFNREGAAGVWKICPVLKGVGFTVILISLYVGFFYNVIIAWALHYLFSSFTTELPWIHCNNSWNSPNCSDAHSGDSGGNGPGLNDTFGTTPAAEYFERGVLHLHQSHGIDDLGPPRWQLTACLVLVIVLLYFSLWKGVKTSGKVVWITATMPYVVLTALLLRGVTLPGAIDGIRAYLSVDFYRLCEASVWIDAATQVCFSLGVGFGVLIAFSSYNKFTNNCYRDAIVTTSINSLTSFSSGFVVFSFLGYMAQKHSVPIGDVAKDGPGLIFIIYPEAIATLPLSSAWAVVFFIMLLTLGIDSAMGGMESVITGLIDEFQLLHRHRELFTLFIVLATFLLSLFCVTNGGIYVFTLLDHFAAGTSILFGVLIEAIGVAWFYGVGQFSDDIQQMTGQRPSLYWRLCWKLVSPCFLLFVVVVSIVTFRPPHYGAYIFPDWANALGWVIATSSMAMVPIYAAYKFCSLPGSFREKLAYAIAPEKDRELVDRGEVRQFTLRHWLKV

[4] = Table 1, inhibition of 3H-citalopram binding, cynomolgus monkey caudate-putamen, read-out: IC50 (nM SERT)
[5] = Table 1, inhibition of 3H-WIN35,428 binding, cynomolgus monkey caudate-putamen, read-out: IC50 (nM DAT)

## COC(=O)[C@H]1[C@@H](OC(=O)c2ccccc2)C[C@@H]2CC[C@H]1N2C [(1R)-(−)-cocaine]
[1]
  binds at the dopamine transporter more potently than the unnatural isomer (1S)-(+)-cocaine: about 200 fold

## COC(=O)C1C(c2ccc(Cl)c(Cl)c2)CC2CC(O)C1N2C (stereo not shown) [Compound 11]
[2]; [4]
  IC50: 20 nM
[3]; [5]
  IC50: 1 nM
[3]; Table 1
  Selectivity DAT V. SERT: 20

## COC(=O)[C@H]1[C@@H](c2ccc(Cl)c(Cl)c2)C[C@@H]2CC[C@H]1N2C [(1R)-3β-(3,4-di-chlorophenyl)-tropane-2β-carboxylic acid methyl ester, reference compound]
[3]
  IC50: 1.09 nM
[3]; Table 1
  Selectivity DAT V. SERT: 2

## COC(=O)C1C(c2ccc(Cl)c(Cl)c2)CC2CC(OC)C1N2 (stereo not drawn) [Compound 14, 2β-carbomethoxy-3β-(3,4-dichlorophenyl)-7-methoxy-8-azabicyclo(3.2.1)octane]
[2]; [4]
  IC50: 884 nM
[3]; [5]
  IC50: 86 nM
[3]; Table 1
  Selectivity DAT V. SERT: 10

## COC(=O)C1=C(c2ccc(Cl)c(Cl)c2)CC2CC[C@@H]1O2 [Compound 47f, (1S)-2-Carbomethoxy-3-(3,4-dichlorophenyl)-8-oxabicyclo(3.2.1)-2-octene]
[2]; read-out: IC50 (nM) SERT
  IC50: 46700 nM
[3]; Table 2, 2,3-enes
  Selectivity DAT V. SERT: 800 and 802
[3]; read-out: IC50 (nM) DAT
  IC50: 58.2 nM

## COC(=O)C1=C(c2ccc(Cl)c(Cl)c2)CC2CCC1N2C (stereo not shown) [Compound 48]
[2]
  IC50: 867 nM
[3]
  IC50: 1.1 nM
[3]; Table 2, 2,3-enes
  Selectivity DAT V. SERT: 790

## COC(=O)C1C(c2ccc(Cl)c(Cl)c2)CC2CC(O)C1N2 (stereo not drawn) [Compound 10, 2β-Carbomethoxy-3-(3,4-dichlorophenyl)-7-hydroxy-8-azabicyclo(3.2.1)octane]
[2]; [4]
  IC50: 1450 nM
[3]; [5]
  IC50: 1 nM

## COC(=O)C1C(c2ccc(Cl)c(Cl)c2)CC2CC(OC)C1N2 (stereo not drawn) [Compound 15, 2β-Carbomethoxy-3-(3,4-dichlorophenyl)-7-methoxy-8-azabicyclo(3.2.1)octane]
[2]; [4]
  IC50: 5220 nM
[3]; [5]
  IC50: 92 nM
[3]; Table 1
  Selectivity DAT V. SERT: 57

## COC(=O)C1=C(c2ccc(Cl)c(Cl)c2)CC2CC[C@H]1O2 [Compound 47e, (1R)-2-Carbomethoxy-3-(3,4-dichlorophenyl)-8-oxabicyclo(3.2.1)-2-octene]
[2]; read-out: IC50 (nM) SERT
  IC50: 2120 nM
[3]; read-out: IC50 (nM) DAT
  IC50: 4.6 nM
